Patent US10660334B2, “Fused bicyclic heterocycle derivatives as pesticides” (Bayer CropScience Aktiengesellschaft, priority 2016, dated 2020)

What was measured:
Ctenocephalides felis [1] = experiment: Ctenocephalides felis in vitro contact test with adult cat fleas; assay type: in vivo; settings: application rate 5 μg/cm^2 (=500 g/ha), after 48 h
Protocol: Ctenocephalides felis—In Vitro Contact Tests with Adult Cat Fleas For the coating of the test tubes, 9 mg of active ingredient are first dissolved in 1 ml of acetone p.a. and then diluted to the desired concentration with acetone p.a. 250 μl of the solution are distributed homogeneously on the inner walls and the base of a 25 ml glass tube by turning and rocking on an orbital shaker (rocking rotation at 30 rpm for 2 h). With 900 ppm of active ingredient solution and internal surface area 44.7 cm^2, given homogeneous distribution, an area-based dose of 5 μg/cm^2 is achieved. After the solvent has evaporated off, the tubes are populated with 5-10 adult cat fleas (Ctenocephalides felis), sealed with a perforated plastic lid and incubated in a horizontal position at room temperature and ambient humidity. After 48 h, efficacy is determined. To this end, the tubes are stood upright and the fleas are knocked to the base of the tube. Fleas which remain motionless at the base or move in an uncoordinated manner are considered to be dead or moribund. […] 100% efficacy means that all the fleas were dead or moribund. 0% efficacy means that no fleas were harmed.

[2] = log P by HPLC on reversed-phase column (EEC Directive 79/831 Annex V.A8), acidic range; assay type: physicochemical; settings: reversed-phase C18 HPLC column; HPLC reversed-phase C18, 55° C., pH 2.7, 0.1% aqueous formic acid and acetonitrile; read-out: log P (HCOOH)
Protocol: The log P values are measured according to EEC Directive 79/831 Annex V.A8 by HPLC (high-performance liquid chromatography) on a reversed-phase column (C18). Temperature: 55° C. The LC-MS determination in the acidic range is effected at pH 2.7 with 0.1% aqueous formic acid and acetonitrile (containing 0.1% formic acid) as eluents; linear gradient from 10% acetonitrile to 95% acetonitrile. Called log P (HCOOH) in the table.

Myzus persicae [3] = experiment: Myzus persicae oral test; assay type: in vivo; settings: 120 h, application rate 4 ppm, after 5 days, read-out: efficacy (aphids killed)
Protocol: Myzus persicae—Oral Test Solvent: 100 parts by weight of acetone To produce a suitable active ingredient formulation, 1 part by weight of active ingredient is dissolved with the stated parts by weight of solvent and made up to the desired concentration with water. 50 μl of the active ingredient preparation are transferred into microtitre plates and made up to a final volume of 200 μl with 150 μl of IPL41 insect medium (33%+15% sugar). Subsequently, the plates are sealed with parafilm, which a mixed population of green peach aphids (Myzus persicae) within a second microtitre plate is able to puncture and imbibe the solution. After 5 days, the efficacy in % is determined. 100% means that all the aphids have been killed; 0% means that no aphids have been killed.

Myzus persicae [4] = experiment: Myzus persicae spray test; assay type: in vivo; settings: foliar, 120 h, spray on Chinese cabbage leaf discs, after 5 days, read-out: efficacy (aphids killed); for pest or weed control at 100 g/ha: application rate 100 g/ha; for pest or weed control at 20 g/ha: application rate 20 g/ha
Protocol: Myzus persicae—Spray Test Solvent: 78 parts by weight of acetone • • 1.5 parts by weight of dimethylformamide Emulsifier: alkylaryl polyglycol ether To produce a suitable active ingredient formulation, 1 part by weight of active ingredient is dissolved with the specified parts by weight of solvent and made up to the desired concentration with water containing an emulsifier concentration of 1000 ppm. To produce further test concentrations, the formulation is diluted with emulsifier-containing water. Discs of Chinese cabbage leaves (Brassica pekinensis) infested by all stages of the green peach aphid (Myzus persicae) are sprayed with an active ingredient formulation of the desired concentration. After 5 days, the efficacy in % is determined. 100% means that all the aphids have been killed; 0% means that no aphids have been killed.

Tetranychus urticae = Tetranychus urticae spray test, OP-resistant; assay type: in vivo; settings: application rate 100 g/ha, spray on bean leaf discs, after 6 days
Protocol: Tetranychus urticae—Spray Test, OP-Resistant
(§1) Solvent: 78.0 parts by weight of acetone • • 1.5 parts by weight of dimethylformamide
(§2) Emulsifier: alkylaryl polyglycol ether
(§3) To produce a suitable active ingredient formulation, 1 part by weight of active ingredient is dissolved with the specified parts by weight of solvent and made up to the desired concentration with water containing an emulsifier concentration of 1000 ppm. To produce further test concentrations, the formulation is diluted with emulsifier-containing water.
Discs of bean leaves (Phaseolus vulgaris) infested with all stages of the greenhouse red spider mite (Tetranychus urticae) are sprayed with an active ingredient formulation of the desired concentration.
After 6 days, the efficacy in % is determined. 100% means that all the spider mites have been killed; 0% means that no spider mites have been killed.

Lucilia cuprina = Lucilia cuprina test; assay type: in vivo; settings: application rate 100 ppm, L1 larvae, after 2 days
Protocol: Lucilia cuprina Test Solvent: dimethyl sulfoxide To produce a suitable active ingredient formulation, 10 mg of active ingredient are mixed with 0.5 ml of dimethyl sulfoxide, and the concentrate is diluted with water to the desired concentration. About 20 L1 larvae of the Australian sheep blowfly (Lucilia cuprina) are transferred into a test vessel containing minced horsemeat and the active ingredient formulation of the desired concentration. After 2 days, the kill in % is determined. 100% means that all the larvae have been killed; 0% means that no larvae have been killed.

Ctenocephalides felis [5] = experiment: Ctenocephalides felis oral test; assay type: in vivo; settings: application rate 100 ppm in citrated cattle blood, after 2 days, adult cat fleas
Protocol: Ctenocephalides felis—Oral Test Solvent: dimethyl sulfoxide To produce a suitable active ingredient formulation, 10 mg of active ingredient are mixed with 0.5 ml of dimethyl sulfoxide. Dilution with citrated cattle blood gives the desired concentration. About 20 unfed adult cat fleas (Cienocephalides felis) are placed into a chamber which is closed at the top and bottom with gauze. A metal cylinder whose bottom end is closed with parafilm is placed onto the chamber. The cylinder contains the blood/active ingredient formulation, which can be imbibed by the fleas through the parafilm membrane. After 2 days, the kill in % is determined. 100% means that all of the fleas have been killed; 0% means that none of the fleas have been killed.

Musca domestica = Musca domestica test; assay type: in vivo; settings: application rate 100 ppm, adult houseflies, after 2 days
Protocol: Musca domestica Test Solvent: dimethyl sulfoxide To produce a suitable active ingredient formulation, 10 mg of active ingredient are mixed with 0.5 ml of dimethyl sulfoxide, and the concentrate is diluted with water to the desired concentration. Vessels containing a sponge treated with sugar solution and the active ingredient formulation of the desired concentration are populated with 10 adult houseflies (Musca domestica). After 2 days, the kill in % is determined. 100% means that all of the flies have been killed; 0% means that none of the flies have been killed.

Boophilus microplus = Boophilus microplus injection test; assay type: in vivo; settings: application rate 20 μg/animal, injection into engorged adult female cattle ticks, after 7 days
Protocol: Boophilus microplus—Injection Test Solvent: dimethyl sulfoxide To produce a suitable active ingredient formulation, 10 mg of active ingredient are mixed with 0.5 ml of solvent and the concentrate is diluted to the desired concentration with solvent. 1 μl of the active ingredient solution is injected into the abdomen of 5 engorged adult female cattle ticks (Boophilus microplus). The animals are transferred into dishes and kept in a climate-controlled room. Efficacy is assessed after 7 days by laying of fertile eggs. Eggs which are not visibly fertile are stored in a climate-controlled cabinet until the larvae hatch after about 42 days. An efficacy of 100% means that none of the ticks has laid any fertile eggs; 0% means that all the eggs are fertile.

Spodoptera frugiperda = Spodoptera frugiperda spray test; assay type: in vivo; settings: application rate 100 g/ha, spray on maize leaf discs, after 7 days
Protocol: Spodoptera frugiperda—Spray Test Solvent: 78.0 parts by weight of acetone • • 1.5 parts by weight of dimethylformamide Emulsifier: alkylaryl polyglycol ether To produce a suitable active ingredient formulation, 1 part by weight of active ingredient is dissolved with the specified parts by weight of solvent and made up to the desired concentration with water containing an emulsifier concentration of 1000 ppm. To produce further test concentrations, the formulation is diluted with emulsifier-containing water. Leaf discs of maize (Zea mays) are sprayed with an active ingredient formulation of the desired concentration and, after drying, populated with caterpillars of the armyworm (Spodoptera frugiperda). After 7 days, the efficacy in % is determined. 100% means that all the caterpillars have been killed; 0% means that no caterpillar has been killed.

Meloidogyne incognita = Meloidogyne incognita test; assay type: in vivo; settings: application rate 20 ppm, lettuce, after 14 days
Protocol: Meloidogyne incognita Test Solvent: 125.0 parts by weight of acetone To produce a suitable active ingredient formulation, 1 part by weight of active ingredient is mixed with the stated amount of solvent and the concentrate is diluted to the desired concentration with water. Vessels are filled with sand, active ingredient solution, an egg/larvae suspension of the southern root-knot nematode (Meloidogyne incognita) and lettuce seeds. The lettuce seeds germinate and the plants develop. The galls develop on the roots. After 14 days, the nematicidal efficacy in % is determined by the formation of galls. 100% means that no galls were found; 0% means that the number of galls on the treated plants corresponds to the untreated control.

Phaedon cochleariae = Phaedon cochleariae spray test; assay type: in vivo; settings: application rate 100 g/ha, spray on Chinese cabbage leaf discs, after 7 days
Protocol: Phaedon cochleariae—Spray Test
as §1, §2, §3
Discs of Chinese cabbage leaves (Brassica pekinensis) are sprayed with an active ingredient formulation of the desired concentration and, after drying, populated with larvae of the mustard beetle (Phaedon cochleariae).
After 7 days, the efficacy in % is determined. 100% means that all the beetle larvae have been killed; 0% means that no beetle larvae have been killed.

| chromatographic logP [2] | SMILES | efficacy (fleas dead or moribund) (Ctenocephalides felis [1]) | pest or weed control at 4 ppm (Myzus persicae [3]) | pest or weed control at 100 g/ha (Myzus persicae [4]) | efficacy (spider mites killed) (Tetranychus urticae) | efficacy (kill) (Lucilia cuprina) | efficacy (kill) (Ctenocephalides felis [5]) | efficacy (kill) (Musca domestica) | pest or weed control at 20 g/ha (Myzus persicae [4]) | efficacy (laying of fertile eggs) (Boophilus microplus) | efficacy (caterpillars killed) (Spodoptera frugiperda) | nematicidal efficacy (formation of galls) (Meloidogyne incognita) | efficacy (beetle larvae killed) (Phaedon cochleariae) |
| --- | --- | --- | --- | --- | --- | --- | --- | --- | --- | --- | --- | --- | --- |
| 2.37 | CCSc1c(-c2nc3cc(C(F)(F)F)ncc3n2C)nc2n1CCCC2 [Example I-001, 2-(3-Ethylsulfanyl-5,6,7,8-tetrahydroimidazo[1,2-a]pyridin-2-yl)-3-methyl-6-(trifluoromethyl)imidazo[4,5-c]pyridine] | 100% | – | – | – | – | – | – | – | – | – | – | – |
| – | CCS(=O)(=O)c1c(-c2nc3cc(C(F)(F)F)ncc3n2C)nc2n1CC(C(F)(F)F)CC2 (stereo not shown) [Example I-003] | – | 100% | 100% | 90% | – | – | – | – | – | – | – | – |
| – | CCS(=O)(=O)c1c(-c2nc3cc(C(F)(F)F)ncc3n2C)nc2n1CCC(C)C2 (stereo not shown) [Example I-007] | 100% | 100% | 100% | – | 100% | 80% | 100% | 100% | – | – | – | – |
| – | CCS(=O)(=O)c1c(-c2nc3cc(C(F)(F)F)ncc3n2C)nc2n1CC(C)CC2 (stereo not shown) [Example I-009] | – | 100% | 100% | – | 100% | 80% | 100% | 90% | 100% | – | – | – |
| – | CCS(=O)(=O)c1c(-c2nc3cc(C(F)(F)F)ncc3n2C)nc2n1CCC(C(F)(F)F)C2 (stereo not shown) [Example I-010] | – | 100% | – | – | – | – | – | 90% | – | 83% | – | – |
| – | CCS(=O)(=O)c1c(-c2nc3cc(C(F)(F)F)cnc3n2C)nc2n1CCCC2 [Example I-011] | – | 100% | 90% | – | 100% | 95% | 80% | 90% | – | – | – | – |
| – | CCS(=O)(=O)c1c(-c2nc3cc(C(F)(F)C(F)(F)F)ncc3n2C)nc2n1CCCC2 [Example I-012] | – | 100% | 90% | – | 100% | 100% | – | 90% | – | 83% | 90% | 100% |
| – | Cn1c(-c2nc3n(c2S(C)(=O)=O)CCCC3)nc2cc(C(F)(F)C(F)(F)F)ncc21 [Example I-013] | – | 100% | 90% | – | 100% | 95% | 80% | – | – | – | – | 83% |
| – | CCS(=O)(=O)c1c(-c2nc3cc(C(F)(F)C(F)(F)F)cnc3n2C)nc2n1CCCC2 [Example I-017] | – | 100% | 100% | – | – | – | – | 90% | – | 100% | – | – |
